Molecules are shown by their SMILES.

In this assay the test system is P. falciparum 3D7 growth, pLDH absorbance. Nature of the assay: P. falciparum 3D7 growth inhibition, dose response, strain 3D7 (AID 2305).

With `CCOc1cc(C)ccc1C1CCN(CCCCNC(=O)c2nc(-c3ccc(C(F)(F)F)cc3)[nH]c2C)CC1`, the IC50 (usually the concentration that gives 50% inhibition) worked out at 730 nM.

`FC(F)(F)c1ccccc1OCc1cc(-c2ccncc2)c(COc2ccccc2C(F)(F)F)cc1C1=CCNCC1` showed an IC50 of 890 nM.

As for `CCNC(=NCc1ccccc1)NCCCCCCNC(=NCc1ccccc1)NCC`, the IC50 was 700 nM.

For the compound `CCOCCCn1c(=N)c(C(=O)NCc2ccc(OC)cc2)cc2c(=O)n3cccc(C)c3nc21`, the IC50 stood at 1060 nM.

Compound `COc1cccc(C(=O)Nc2nc3c(s2)CCN(Cc2ccccc2N2CCNCC2)CC3)c1` had an IC50 of 890 nM.

Compound `OC(c1ccc(Cl)cc1)(c1ccc(Cl)cc1)C(c1ccc(Cl)cc1)n1ccnc1` (configuration not stated) displayed an IC50 of 860 nM.

Consider `CN(C)c1ccc(C=C2SC(=O)NC2=Nc2ccccc2)cc1`, for which the IC50 was 30 nM.

On to `CC(C)COc1ccc(Cl)cc1Cc1nc(-c2nc3ccc(CN4CCCC4)cc3[nH]2)co1`, for which the IC50 stood at 730 nM.

For the compound `CN(C)c1ccc(-c2csc(C(=O)NCC3CCN(Cc4ccc(C(C)(C)C)cc4)C3)c2)cc1` (configuration not stated), the half-maximal inhibitory concentration (IC50) is 990 nM.

In the case of `O=C(Nc1ccc(Cl)cc1)Nc1ccc(-c2csc(-c3nc4ccccc4[nH]3)c2)cc1`, the IC50 is 800 nM.

For the compound `O=C(NCC1CC1)C1CCN(C(c2ccccc2)c2ccc(Cl)c(Cl)c2)CC1` (configuration not stated), the IC50 stood at 370 nM.

`O=C(Nc1cccc(OC2CCN(Cc3ccccc3)CC2)c1)Nc1cccc([N+](=O)[O-])c1` registered an IC50 of 780 nM.

For `COc1ccc2nc(-c3ccc(F)cc3)cc([C@@H](O)[C@@H]3C[C@@H]4CCN3CC4C=NO)c2c1` (some centres not stated), the IC50 is 250 nM.

In turn, `CC(C)c1cc2c(ccc3nc(N)nc(N)c32)o1` returned an IC50 of 90 nM.

For the compound `COc1ccc(-c2ccc(Nc3cccc(S(=O)(=O)CCN4CCC(CCN(C)C)CC4)c3)nc2)cn1`, the IC50 worked out at 1120 nM.

`NS(=O)(=O)c1cccc(-c2ccc3ncc(N4CCOCC4)nc3c2)c1` displayed an IC50 of 990 nM.

`COc1cc2nc(NCCc3ccccc3)nc(NCc3ccc(C#N)cc3)c2cc1OC` came in with an IC50 of 150 nM.

`COc1ccc(C2C(C(=O)OC3CCCC3)=C(C)NC3=C2C(=O)CCC3)cc1Br` (configuration not stated) displayed an IC50 of 590 nM.

`Cc1ccc(CN2CCCCC(NC(=O)c3cc4ccccc4s3)C2)cc1` (configuration not stated) yielded a half-maximal inhibitory concentration (IC50) of 900 nM.

As to `COc1cc2nc(NCC3CCCO3)n3nc(-c4ccccc4)nc3c2cc1OC` (configuration not stated), the IC50 is 210 nM.

With `Cc1cccc2[nH]c(-c3cccc(-c4cccc(CNCc5ccccc5)c4)c3)nc12`, the IC50 turned out to be 390 nM.

Compound `CCCCCCC(C)c1cc(O)c2c(c1)OC(C)(C)C=C2c1ccncc1` (configuration not stated) registered an IC50 of 730 nM.

As for `C=C[C@H]1CN2CC[C@@H]1C[C@H]2[C@H](O)c1cc(-c2ccc(F)cc2)nc2ccc(OC)cc12`, the half-maximal inhibitory concentration (IC50) turned out to be 170 nM.

Consider `O=P(O)(O)Oc1c(Br)cc(Br)cc1-c1cc(Br)cc(Br)c1O`, for which the IC50 is 170 nM.

For `Cc1cccc2[nH]c(-c3ccc(-c4cccc(NC(=O)CN5CCN(C)CC5)c4)s3)nc12`, the IC50 came to 830 nM.

Regarding `Cc1ccc(Nc2nc(NN=Cc3ccccc3[N+](=O)[O-])nc(Nc3ccc([N+](=O)[O-])cc3)n2)cc1C`, the IC50 is 690 nM.

Consider `COc1ccc(CNC2CCN(C)CC2)cc1-c1ccc(S(=O)(=O)NC2CCC2)s1`, for which the IC50 is 730 nM.

Regarding `O=C(NCc1ccccc1)C1Cc2c([nH]c3ccc(Br)cc23)C2(CCN(Cc3ccccc3)CC2)N1` (configuration not stated), the IC50 was determined as 870 nM.

Compound `CC(C)CCNCC(O)Cn1c2ccc(Cl)cc2c2cc(Cl)ccc21` (configuration not stated) gave a half-maximal inhibitory concentration (IC50) of 450 nM.

The compound `Cc1ccc(CNC(=O)[C@H](CCCN)Nc2nc(Nc3ccccc3)ncc2C)cc1` returned an IC50 of 1530 nM.

`CN1CCN(CCCN(Cc2csc(-c3ccc(CNCc4ccccc4)cc3)n2)S(=O)(=O)c2ccc(F)cc2)CC1` displayed an IC50 of 860 nM.

In turn, `CS(=O)(=O)CCNCc1nc(-c2ccc3ncnc(Nc4ccc(OCc5ccccc5)c(Cl)c4)c3c2)cs1` returned a concentration for half-maximal inhibition (IC50) of 800 nM.

For the compound `O=C(c1cccc(Br)c1)N1CCN(c2ccc([N+](=O)[O-])c(NC3CC3)c2)CC1`, the IC50 turned out to be 940 nM.

For the compound `COc1ccc2c(NN=Cc3ccccn3)ccnc2c1`, the IC50 is 370 nM.

Turning to `O=C(NC1CCN(c2ccnc(Nc3ccc(F)cc3)n2)C1)c1cc2ccccc2s1` (configuration not stated), the half-inhibitory concentration (IC50) was determined as 720 nM.

The compound `O=C(Nc1ccc(OC2CCN(Cc3ccccc3)C2)c(Cl)c1)c1cccs1` (configuration not stated) yielded an IC50 of 390 nM.

Turning to `O=C(Nc1ccc(N2CCNCC2)nc1)c1oc(-c2ccccc2)nc1C(F)(F)F`, the IC50 was found to be 980 nM.

Turning to `O=C(NCCN1CCC(c2ccncc2)CC1)c1cccc(Nc2nccc(Nc3ccc(Oc4ccccc4)cc3)n2)c1`, the IC50 was 170 nM.

Compound `CC(C)COc1ccc(Cl)cc1Cc1nc(-c2nc3nc(N4CCN(C)CC4)ccc3[nH]2)cs1` showed an IC50 of 750 nM.

In turn, `CC(C)c1cc(N)c2cc(NC(=O)COCC(=O)Nc3ccc4nc(C(C)C)cc(N)c4c3)ccc2n1` displayed an IC50 of 220 nM.

`O=C(Nc1ccc2c(c1)OCO2)c1cc(-c2cccnc2)nc2ccc(Cl)cc12` showed an IC50 of 520 nM.

Turning to `OCCNc1nc(Nc2cccc(O)c2)nc2ccccc12`, the half-maximal inhibitory concentration (IC50) is 390 nM.

Compound `COc1cc2nc(C)nc(Nc3ccc(Oc4ccccc4)cc3)c2cc1OC` had an IC50 of 720 nM.

The compound `CCCN1CCN(c2cc(NCC)c3c4c(onc24)-c2ccccc2C3=O)CC1` registered a half-maximal inhibitory concentration (IC50) of 1060 nM.

Compound `Nc1nc(-c2ccc3c(Nc4ccc(F)c(Cl)c4)ccnc3c2)cs1` returned an IC50 of 870 nM.

For `COc1ccc2ncc(F)c(CCN3CCC4(CC3)COC(c3cc5c(cn3)OCCO5)=N4)c2n1`, the IC50 came to 220 nM.

`COc1ccc(NC(=O)Nc2cc(C)nc3ccccc23)cc1Cl` returned an IC50 of 690 nM.

As to `O=C(NCCCCN1CC[C@@H]2c3cccc(O)c3CC[C@H]21)c1ccc(-c2ccccc2)cc1`, the IC50 came out at 1380 nM.

As to `NCCc1cccc(-c2cnc3[nH]cc(-c4ccc(C(=O)O)cc4)c3c2)c1`, the IC50 is 400 nM.

As to `C=CCn1c(C)cc(C(=O)COc2ccc(S(=O)(=O)N3CCOCC3)cc2[N+](=O)[O-])c1C`, the IC50 turned out to be 1110 nM.

The compound `Cc1ccc(-c2nc3ccc(C(=O)NC4CCN(Cc5ccccc5)CC4)cc3[nH]2)cc1` yielded an IC50 of 740 nM.

As for `C=C(C)C1CC=C(CN2CCCC(n3ccc4cc(NC(=O)c5ccco5)ccc43)CC2)CC1` (configuration not stated), the half-inhibitory concentration (IC50) amounted to 750 nM.

`Cc1[nH]c2ccccc2c1C=NNc1nc(Nc2ccccc2)nc(Nc2ccccc2)n1`: the IC50 amounted to 930 nM.

In the case of `CCc1c(C)nc(-n2nc(C)cc2NC(=O)c2ccc(OC)cc2OC)[nH]c1=O`, the IC50 was found to be 830 nM.

The compound `CCCNC(=O)c1ccc(N2CCC(c3ccccc3C)CC2)nc1` had an IC50 of 1520 nM.

In the case of `CCCOc1ccc(C(F)(F)F)cc1NC(=O)c1nc2nc(C)cc(C)n2n1`, the IC50 was found to be 250 nM.

As for `Oc1ccc(C2CNCCc3c2cc(O)c(OCc2ccccc2)c3Cl)cc1` (configuration not stated), the IC50 came out at 720 nM.

In turn, `CCCCCCN1CCC(NCc2ccc(C(F)(F)F)cc2)CC1` showed an IC50 of 370 nM.

Consider `Cc1cc(Nc2cccc(Cl)c2)nc2ccc(NC(=O)c3ccc(=O)[nH]c3)cc12`, for which the IC50 turned out to be 1000 nM.

Consider `N#Cc1ccc2c(c1)CCN(CCC1CCC(NC(=O)/C=C/c3ccc(Cl)c(Cl)c3)CC1)CC2` (configuration not stated), for which the IC50 is 420 nM.

In turn, `COc1cccc2c(NN=Cc3ccccc3[N+](=O)[O-])cc(C)nc12` registered an IC50 of 420 nM.

For the compound `Cc1cccc2[nH]c(-c3ccc(-c4ccc(CN5CCN(c6ccncc6)CC5)cc4)s3)nc12`, the IC50 came out at 110 nM.

In turn, `C=CCOC(=O)N1CCC(CNCc2cccc(-c3ccc(-c4nc5c(C)cccc5[nH]4)cc3)c2)C1` (configuration not stated) returned an IC50 of 250 nM.

The compound `CC(C)NCc1cccc(-c2cccc(NC(=O)c3cccc(C#N)c3)c2)c1` registered an IC50 of 820 nM.

`Cc1ccc(Cc2cnc(NCCSCc3ccc(CN4CCOCC4)o3)[nH]c2=O)cn1` showed an IC50 of 1070 nM.

`c1ccc(Oc2ccc(Nc3ccnc4cc(-c5ccc(CNCCN6CCOCC6)o5)ccc34)cc2)nc1` yielded a 50% inhibitory concentration (IC50) of 1440 nM.

The compound `CS(=O)(=O)c1ccc(-n2nc(C(F)(F)F)cc2-c2ccc(/C=N/OCC(=O)O)o2)cc1` had an IC50 of 980 nM.

`CN=C(NC)c1cccc(NC(=O)C=Cc2ccc(C=CC(=O)Nc3cccc(C(=NC)NC)c3)cc2)c1` registered an IC50 of 160 nM.

For `CCOc1ccc(C2CCN(CCCCNC(=O)c3ccc(NC(=O)c4ccc(Cl)cc4)cc3)CC2)c(CC)c1`, the IC50 came to 790 nM.

In turn, `Cc1cccc2[nH]c(-c3cccc(-c4ccc(NC(=O)c5cccc(C(N)=O)c5)cc4)c3)nc12` yielded an IC50 of 410 nM.

`CCOC(=O)c1[nH]c(-c2cc(Cl)nc(Cl)c2)nc1NC(=S)NCc1ccc(NS(C)(=O)=O)cc1` displayed an IC50 of 890 nM.

`CC(C)CNCc1cccc(-c2ccc(CN(CCCN3CCN(C)CC3)C(=O)CCC3CCCC3)cc2)c1` gave an IC50 of 880 nM.

For `Cc1ccc(CC(C)NCC(O)c2cccc([N+](=O)[O-])c2)cc1` (configuration not stated), the IC50 came out at 760 nM.

Turning to `CC(=O)Nc1ncc(C(=O)Nc2cccc(-c3ccc(-c4nc5ccc(C(F)(F)F)cc5[nH]4)cc3)c2)s1`, the IC50 was found to be 590 nM.

Compound `COc1ccc2nccc([C@@H](O)CN3CCC(NCCOc4ccccc4C(F)(F)F)CC3)c2c1` had a half-inhibitory concentration (IC50) of 750 nM.

Take `COc1cccc(CN2CCCN(Cc3cccc(NC(=O)c4ccc(-c5ccccc5)cc4)c3)CC2)c1`: the IC50 amounted to 240 nM.

In turn, `COc1nc2c(CCN3CC[C@H](NCc4cc(C#N)c5c(c4)OCCO5)[C@H](O)C3)ccnc2cc1F` gave an IC50 of 780 nM.

The compound `CC(C)c1cn2c3c(cc(C(=O)N[C@@H](Cc4ccccc4)[C@H](O)CNC4CCCCC4)cc13)N(C)S(=O)(=O)CC2` registered an IC50 of 30 nM.

For `C=CCN1C(=O)C(=Cc2cc(Br)ccc2O)SC1=Nc1ccccc1`, the IC50 worked out at 900 nM.

Compound `N#Cc1ccc(CN2CCC(Oc3ccc(NC(=O)c4cccs4)cc3)C2)cc1` (configuration not stated) displayed an IC50 of 950 nM.

Compound `CCOC(=O)c1cnc2c(OC)cc(OC)c(Cl)c2c1Nc1cccc(C)c1C` returned an IC50 of 310 nM.

`O=C(C=NO)Nc1ccccc1[N+](=O)[O-]`: the IC50 was determined as 790 nM.

With `O=C(CN(c1cccc(C(F)(F)F)c1)S(=O)(=O)c1ccc(Cl)cc1)NCCC(c1ccccc1)c1ccccc1`, the IC50 was 740 nM.

With `Cc1nc(NCCCn2ccnc2)cc(-c2cncc(-c3ccc(OC(F)(F)F)cc3)c2)n1`, the IC50 was found to be 620 nM.

`CS(=O)(=O)c1ccc(CNCc2cccc(-c3cccc(-c4nc5ccccc5[nH]4)c3)c2)cc1` returned an IC50 of 590 nM.

Compound `C/C=C1/CN2CC[C@H]1C[C@H]2[C@H](O)c1ccnc2ccc(O)cc12` showed an IC50 of 490 nM.

`COc1ccc(-c2nonc2NC(=O)c2ccc(OC(C)C)cc2)cc1OC` showed an IC50 of 630 nM.

Values taken from PubChem BioAssay AID2305 (GlaxoSmithKline (GSK), 2010).
